# Experimental data taken from US20090306122A1, “SUBSTITUTED TETRAHYDROPYRROLOQUINOLINE DERIVATIVES AS KINASE MODULATORS, ESPECIALLY OF TYROSINE AND RAF KINASES” (priority 2005, published 2009).
# Target: T1, IGF1-R kinase (Homo sapiens, UniProt P08069)
# T1 construct: purchased ProQinase
# Assay: Assay for the determination of IGF1-R kinase inhibition (AlphaScreen)
# Format: biochemical
# Conditions: ATP 1 μM, biotinylated poly Glu, Tyr 4:1
# From the text: Assay for the Determination of IGF1-R Kinase Inhibition
# Lit.: G. Warner et al., Current Medicinal Chemistry, 2004, 11, 721-730
# Use is made of AlphaScreen technology [(Amplified Luminescent Proximity Homogenous Assay), PerkinElmer], which is based on the amplification of a signal generated on interaction of so-called donor and acceptor beads. The convergence of two molecules can be measured very sensitively via this system.
# The AlphaScreen test is based on traditional kinase tests, with the exception that the kinase activity is detected non-radioactively.
# The binding of molecules which have been captured on the beads results in energy transfer from one bead to the other, which ultimately results in a luminescence/fluorescence signal.
# In the absence of IGF1-R kinase activity, no signal is detected.
# The kinase phosphorylates the biotinylated polypeptide (poly Glu, Tyr, 4:1) on the tyrosine.
# The phosphorylated biotinylated peptide binds to streptavidin donor beads (biotin-streptavidin binding). The anti-phospho-tyrosine P-Tyr-100 antibody bound to the acceptor beads binds to phospho-tyrosine via the antigen binding site, giving a complex of:
# Donor bead-streptavidin <->biotin-phosphopeptide (P substrate)<->antiphospho antibody-acceptor bead
# If light having a wavelength of 680 nm is incident, the donor beads produce singlet oxygen, which, on adequate spatial proximity of the acceptor beads (only on formation of complex), causes the latter to emit at 520/620 nm.
# Test procedure: the test is carried out in a 384-well OptiPlate™-384 Art.: 6007290 from Perkin Elmer
# IGF1-R, enzyme from “ProQinase” • IGF1-R, 20 μl • Final concentration: 0.5 ng of kinase/well • (in 50 mM MOPS assay buffer pH 7.0 (comprising 0.20 mM • EDTA; 5.0 mM MnCl2; 10 mM MgCl2; 0.002% of BriJ; 0.002% of 2-mercaptoethanol and 0.1% of BSA) • +Test substance or standard sample, 3.0 μl • are pipetted into MTP well, shaken briefly and pre-incubated.
# Pre-incubation: 30 minutes at RT (with continuous gentle shaking)
# ATP/biotinylated substrate mix, 10 μl is added • ATP adenosine 5′-triphosphate, disodium salt (Calbiochem)/biotinylated poly Glu, Tyr, 4:1 (from Perkin Elmer) • Final concentration of ATP: 1 μM • Final concentration of biotinylated poly Glu, Tyr, 4:1:1 nM • Shake briefly and incubate. • Incubation: 45 minutes at RT (with continuous gentle shaking) 3. • Beads, P-Tyr-100 acceptor beads; antiphosphotyrosine (P-Tyr-100) acceptor beads • and simultaneously Streptavidin donor beads, 20 μl, are pipetted into well in a darkened room and shaken briefly. • Final concentration: 5 μg/ml of beads • Acceptor/donor beads are prepared shortly in advance in AlphaScreen detection/stop buffer (25 mM HEPES buffer comprising 100 mM NaCl, 0.1% of BSA, 100 mM EDTA). • This is followed by • Incubation: 20 hours at RT in the dark • Measurement: on the fusion a screen in Alpha programme 1 sec.
# T1 sequence (P08069 31-1367): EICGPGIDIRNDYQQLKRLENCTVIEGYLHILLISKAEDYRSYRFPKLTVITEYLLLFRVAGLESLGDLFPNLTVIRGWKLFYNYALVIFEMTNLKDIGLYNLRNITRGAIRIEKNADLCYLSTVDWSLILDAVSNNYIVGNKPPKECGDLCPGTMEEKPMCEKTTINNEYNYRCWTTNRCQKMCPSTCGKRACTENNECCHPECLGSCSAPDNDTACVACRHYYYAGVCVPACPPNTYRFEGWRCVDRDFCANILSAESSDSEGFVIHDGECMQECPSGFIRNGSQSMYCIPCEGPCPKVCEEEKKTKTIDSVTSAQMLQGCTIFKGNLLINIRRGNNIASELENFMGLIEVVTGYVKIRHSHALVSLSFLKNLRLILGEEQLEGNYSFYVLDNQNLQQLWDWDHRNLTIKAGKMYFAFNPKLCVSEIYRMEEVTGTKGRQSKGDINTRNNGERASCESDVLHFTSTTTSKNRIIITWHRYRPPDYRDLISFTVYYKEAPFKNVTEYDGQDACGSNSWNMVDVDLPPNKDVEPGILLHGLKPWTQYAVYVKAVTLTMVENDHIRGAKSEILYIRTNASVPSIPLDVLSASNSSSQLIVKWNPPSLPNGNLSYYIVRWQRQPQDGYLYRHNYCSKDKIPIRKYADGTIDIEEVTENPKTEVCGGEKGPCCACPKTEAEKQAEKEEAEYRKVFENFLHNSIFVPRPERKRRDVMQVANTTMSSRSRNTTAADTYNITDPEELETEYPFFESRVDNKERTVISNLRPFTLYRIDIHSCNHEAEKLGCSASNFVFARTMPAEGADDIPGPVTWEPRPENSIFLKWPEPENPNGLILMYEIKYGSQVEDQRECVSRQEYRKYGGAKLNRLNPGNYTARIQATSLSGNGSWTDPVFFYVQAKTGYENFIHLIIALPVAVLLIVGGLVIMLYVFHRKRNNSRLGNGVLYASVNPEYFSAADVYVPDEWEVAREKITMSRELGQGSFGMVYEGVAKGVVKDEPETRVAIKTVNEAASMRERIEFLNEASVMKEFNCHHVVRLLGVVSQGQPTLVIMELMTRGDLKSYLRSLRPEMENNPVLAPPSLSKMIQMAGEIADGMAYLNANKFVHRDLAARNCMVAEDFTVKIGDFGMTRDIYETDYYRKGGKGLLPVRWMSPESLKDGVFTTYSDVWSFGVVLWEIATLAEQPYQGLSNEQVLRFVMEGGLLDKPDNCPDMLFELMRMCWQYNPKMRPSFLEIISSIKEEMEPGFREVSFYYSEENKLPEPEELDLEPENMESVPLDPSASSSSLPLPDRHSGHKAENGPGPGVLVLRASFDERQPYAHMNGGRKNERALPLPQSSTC
row,IC50,SMILES
1,21000 nM,O=C1CCCN1C1CC(c2cccc(-c3cccc(OC(F)(F)F)c3)c2)N2CCc3cccc1c32 (centres unmarked) [Compound 44]
2,7400 nM,O=C1CCCN1C1CC(c2cccc(-c3ccc(C(F)(F)F)cc3)c2)N2CCc3cccc1c32 (centres unmarked) [Compound 43]
3,2100 nM,COc1cccc(OC)c1C1CC(N2CCCC2=O)c2cccc3c2N1CC3 (centres unmarked) [Compound 28]
4,2000 nM,COc1cccc(C2CC(N3CCCC3=O)c3cccc4c3N2CC4)c1 (centres unmarked) [Compound 31]
5,930 nM,COc1cc(C2CC(N3CCCC3=O)c3cccc4c3N2CC4)ccc1OC(=O)OC(C)(C)C (centres unmarked) [Compound 36]
6,2700 nM,O=C1CCCN1C1CC(c2cccc(OCc3ccccc3)c2)N2CCc3cc(F)cc1c32 (centres unmarked) [Compound 40]
7,1100 nM,O=C1CCCN1C1CC(c2ccccc2OCc2ccccc2)N2CCc3cccc1c32 (centres unmarked) [Compound 29]
8,3500 nM,CCOc1ccc(C2CC(N3CCCC3=O)c3cccc4c3N2CC4)c(OCC)c1C (centres unmarked) [Compound 35]
9,2100 nM,COc1ccc(Oc2cccc(C3CC(N4CCCC4=O)c4cccc5c4N3CC5)c2)cc1 (centres unmarked) [Compound 33]
10,2100 nM,COc1cccc(C2CC(N(C)C(C)=O)c3cccc4c3N2CC4)c1 (centres unmarked) [Compound 38]
11,4500 nM,O=C1CCCN1C1CC(c2ccccc2Cl)N2CCc3cc(F)cc1c32 (centres unmarked) [Compound 41]
12,2800 nM,O=C1CCCN1C1CC(c2cccc(OCc3ccccc3)c2)N2CCc3cccc1c32 (centres unmarked) [Compound 30]
13,4800 nM,O=C1CCCN1C1CC(c2cccc3c2OCO3)N2CCc3cccc1c32 (centres unmarked) [Compound 34]
14,6000 nM,COc1ccccc1C1CC(N2CCCC2=O)c2cccc3c2N1CC3 (centres unmarked) [Compound 32]
15,14000 nM,O=C(O)c1ccc(C2CC(N3CCCC3=O)c3cccc4c3N2CC4)cc1 (centres unmarked) [Compound 45]
16,260 nM,O=C1CCCN1C1CC(c2ccc(-c3ccccc3[N+](=O)[O-])o2)N2CCc3cccc1c32 (centres unmarked) [Compound 37]
17,5500 nM,O=C1CCCN1C1CC(c2cccc(-c3ccc(F)cc3)c2)N2CCc3cccc1c32 (centres unmarked) [Compound 42]

# Further lines, the compound ahead of its results:
row,SMILES,IC50
1,"COc1cccc(C2CC(N3CCCC3=O)c3cc(F)cc4c3N2CC4)c1 (centres unmarked) [Compound 1, 6-(2-oxopyrrolidin-1-yl)-8-fluoro-4-(3-methoxyphenyl)-1,2,5,6-tetrahydro-4H-pyrrolo[3,2,1-ij]quinoline]",29000 nM
2,O=C1CCCN1C1CC(c2cccc(C(F)(F)F)c2)N2CCc3cccc1c32 (centres unmarked) [Compound 7],4500 nM
3,O=C1CCCN1C1CC(c2cccc(Cl)c2Cl)N2CCc3cccc1c32 (centres unmarked) [Compound 2],5000 nM
4,CC(C)(C)c1ccc(C2CC(N3CCCC3=O)c3cccc4c3N2CC4)cc1 (centres unmarked) [Compound 8],1600 nM
5,O=C1CCCN1C1CC(c2ccc(Cl)cc2F)N2CCc3cccc1c32 (centres unmarked) [Compound 4],1500 nM
6,O=C1CCCN1C1CC(c2ccc(Br)cc2F)N2CCc3cccc1c32 (centres unmarked) [Compound 18],2100 nM
7,CCCc1ccc(C2CC(N3CCCC3=O)c3cccc4c3N2CC4)cc1 (centres unmarked) [Compound 11],3500 nM
8,CC(C)c1ccc(C2CC(N3CCCC3=O)c3cccc4c3N2CC4)cc1 (centres unmarked) [Compound 9],2000 nM
9,Cc1ccc(C2CC(N3CCCC3=O)c3cccc4c3N2CC4)cc1[N+](=O)[O-] (centres unmarked) [Compound 19],3300 nM
10,COc1ccc(OC)c(C2CC(N3CCCC3=O)c3cccc4c3N2CC4)c1 (centres unmarked) [Compound 27],2100 nM
11,O=C1CCCN1C1CC(c2ccccc2F)N2CCc3cccc1c32 (centres unmarked) [Compound 15],1500 nM
12,O=C1CCCN1C1CC(c2cccc(Br)c2)N2CCc3cccc1c32 (centres unmarked) [Compound 3],1300 nM
13,COc1cccc(C2CC(N3CCCC3=O)c3cccc4c3N2CC4)c1OC (centres unmarked) [Compound 25],190 nM
14,O=C1CCCN1C1CC(c2cccc(Cl)c2)N2CCc3cccc1c32 (centres unmarked) [Compound 6],2900 nM
15,CCOc1ccccc1C1CC(N2CCCC2=O)c2cccc3c2N1CC3 (centres unmarked) [Compound 26],1400 nM
16,CC(C)(C)OC(=O)Oc1ccc(C2CC(N3CCCC3=O)c3cccc4c3N2CC4)cc1 (centres unmarked) [Compound 21],1800 nM
17,O=C1CCCN1C1CC(c2ccc(Cl)c([N+](=O)[O-])c2)N2CCc3cccc1c32 (centres unmarked) [Compound 14],6000 nM
18,O=C1CCCN1C1CC(c2cc(F)cc(C(F)(F)F)c2)N2CCc3cccc1c32 (centres unmarked) [Compound 20],10000 nM
19,Cc1ccc(C2CC(N3CCCC3=O)c3cccc4c3N2CC4)cc1 (centres unmarked) [Compound 17],2600 nM
20,CCc1ccc(C2CC(N3CCCC3=O)c3cccc4c3N2CC4)cc1 (centres unmarked) [Compound 5],2200 nM
21,O=C1CCCN1C1CC(c2cc(F)cc(F)c2)N2CCc3cccc1c32 (centres unmarked) [Compound 24],3300 nM
22,O=C1CCCN1C1CC(c2ccccc2Br)N2CCc3cccc1c32 (centres unmarked) [Compound 12],2500 nM
23,O=C1CCCN1C1CC(c2cc(C(F)(F)F)cc(C(F)(F)F)c2)N2CCc3cccc1c32 (centres unmarked) [Compound 13],5690 nM
24,O=C1CCCN1C1CC(c2ccc(Cl)cc2Cl)N2CCc3cccc1c32 (centres unmarked) [Compound 23],4000 nM
25,O=C1CCCN1C1CC(c2ncc(C(F)(F)F)cc2Cl)N2CCc3cccc1c32 (centres unmarked) [Compound 22],1700 nM
26,O=C1CCCN1C1CC(c2ccccc2Cl)N2CCc3cccc1c32 (centres unmarked) [Compound 16],3100 nM
27,Cc1cccc(C2CC(N3CCCC3=O)c3cccc4c3N2CC4)c1 (centres unmarked) [Compound 10],3600 nM
